Experimental data published in paper PMC9191221 (Iranian Journal of Pharmaceutical Research : IJPR, 2022).
Several values for one entry are separate records, joined by “and”; a condition that tells them apart may be missing. Equal entries are not always repeated.

Molecular target: EGFR^T790M (Homo sapiens, UniProt P00533, T790M)
Test: EGFR-TK assay kit / ADP-Glo kinase assay
Format: biochemical
Settings: tested in triplicate

Chain of EGFR^T790M (P00533 25-1210 T790M): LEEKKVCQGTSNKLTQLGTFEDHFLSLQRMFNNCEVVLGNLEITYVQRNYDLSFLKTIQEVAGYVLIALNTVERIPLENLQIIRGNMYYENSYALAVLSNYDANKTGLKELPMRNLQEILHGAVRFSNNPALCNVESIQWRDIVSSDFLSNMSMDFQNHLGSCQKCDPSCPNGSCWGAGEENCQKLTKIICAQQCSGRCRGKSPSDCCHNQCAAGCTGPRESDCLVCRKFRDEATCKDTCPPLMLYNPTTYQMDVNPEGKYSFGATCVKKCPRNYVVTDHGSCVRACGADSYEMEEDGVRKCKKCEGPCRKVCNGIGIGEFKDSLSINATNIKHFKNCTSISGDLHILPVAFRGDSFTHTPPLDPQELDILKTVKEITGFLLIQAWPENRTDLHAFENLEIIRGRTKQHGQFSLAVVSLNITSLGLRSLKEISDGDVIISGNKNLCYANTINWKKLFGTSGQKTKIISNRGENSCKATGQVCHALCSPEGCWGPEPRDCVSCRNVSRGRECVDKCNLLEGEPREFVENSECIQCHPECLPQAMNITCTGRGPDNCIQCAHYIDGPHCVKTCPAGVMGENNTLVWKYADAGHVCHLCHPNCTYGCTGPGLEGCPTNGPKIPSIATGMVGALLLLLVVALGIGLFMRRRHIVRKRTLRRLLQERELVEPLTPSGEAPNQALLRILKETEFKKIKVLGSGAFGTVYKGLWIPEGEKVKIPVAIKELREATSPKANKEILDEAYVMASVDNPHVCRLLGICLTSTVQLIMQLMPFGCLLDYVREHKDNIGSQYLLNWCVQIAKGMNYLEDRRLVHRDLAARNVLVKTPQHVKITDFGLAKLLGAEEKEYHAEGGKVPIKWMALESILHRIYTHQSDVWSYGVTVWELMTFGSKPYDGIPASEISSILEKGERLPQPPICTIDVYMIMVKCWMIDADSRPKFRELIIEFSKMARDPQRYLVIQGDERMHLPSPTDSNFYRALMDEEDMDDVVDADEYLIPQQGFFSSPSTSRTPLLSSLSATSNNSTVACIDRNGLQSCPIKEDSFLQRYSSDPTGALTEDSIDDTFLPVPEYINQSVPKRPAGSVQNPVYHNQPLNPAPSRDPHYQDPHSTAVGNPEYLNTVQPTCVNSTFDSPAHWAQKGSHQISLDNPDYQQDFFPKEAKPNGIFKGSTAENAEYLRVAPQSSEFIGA

IC50: 0.37 nM and 1.37 nM
SMILES: O=c1nc(NCc2ccccc2Cl)[nH]c2ccc(Oc3ccccc3)cc12 [Compound 8b, 2-((2-Chlorobenzyl)amino)-6-phenoxyquinazolin-4(1H)-one]
